Data set [1] concerns Hepatitis C virus. Description: Antiviral activity against HCV replication in human HuH7 cells expressing Rep-Feo replicon by luciferase assay. In kind it is functional, organism-based, Hepacivirus hominis. To be noted: Huh-7. A general note: A replicon is a self-replicating genome or part of one, used to study replication in cells.
The nature of data set [2]: Cytotoxicity against human HuH7 cells. It counts as cell-based, Huh-7.
The subject of data set [3] is Hepatitis C virus. Description: Antiviral activity against HCV JFH1 replication in human Huh7.5.1 cells at 5 uM after 48 hrs by quantitative RT-PCR analysis relative to 1 ng/ml interferon. It counts as functional, Hepacivirus hominis, JFH-1, Huh-7.
For data set [4], the system named is Hepatitis C virus. The data set can be described thus: Antiviral activity against HCV JFH1 replication in human Huh7.5.1 cells at 1 uM after 48 hrs by quantitative RT-PCR analysis relative to 1 ng/ml interferon. It counts as functional, Hepacivirus hominis, JFH-1, Huh-7.

Take `c1ccc(C2NCCc3c2[nH]c2ccccc32)cc1` (stereo unspecified): in data set [1], the EC50 was found to be 30 µM. This compound also came in with a half-maximal cytotoxic concentration (CC50) in data set [2] of more than 50 µM.
In the case of `Cc1cc2c(nc1C)CCCN2C[C@H](C)O/N=C1\[C@H]2CCn3c(=O)n(-c4ccccc4)c(=O)n3[C@H]2[C@H](O)[C@@H]2O[C@H]12`, the 50% effective concentration (EC50) in data set [1] is 1.5 µM. In data set [2], half-maximal cytotoxicity (CC50) was put at 39.3 µM.
Compound `CC(=O)OC[C@H]1OC(CCO/N=C2/[C@H]3CCn4c(=O)n(-c5ccccc5)c(=O)n4[C@H]3[C@H](O)[C@@H]3O[C@H]23)C=C[C@@H]1OC(C)=O` (stereo partly specified) displayed a 50% effective concentration (EC50) in data set [1] of 0.7 µM. In data set [2], this compound returned a CC50 of 9 µM.
The corresponding values for `CC(=O)OC[C@H]1O[C@@H](O/N=C2/[C@H]3CCn4c(=O)n(-c5ccccc5)c(=O)n4C3[C@H](O)[C@@H]3O[C@H]23)[C@H](OC(C)=O)[C@@H](OC(C)=O)[C@@H]1OC(C)=O` (stereo partly specified) are 42.9 µM and more than 50 µM.
In data set [1], `CCCNC(=O)OC[C@H]1O[C@H](CCO/N=C(\C)CCN2CCc3nc(-c4ccccc4)c(-c4ccccc4)cc3C2)C=C[C@@H]1Oc1ccc(OC)cc1` showed an EC50 of 14.2 µM. This compound also yielded a half-maximal cytotoxic concentration (CC50) in data set [2] of more than 50 µM.
The corresponding values for `COc1ccc(O[C@H]2C=C[C@@H](c3ccccc3)O[C@@H]2CO/N=C2/[C@H]3CCn4c(=O)n(-c5ccccc5)c(=O)n4[C@H]3[C@H](O)[C@@H]3O[C@H]23)cc1` are 2.6 µM and 18 µM.
For `Cc1cc(C)c(-c2cc([C@H](C)O/N=C3\[C@H]4CCn5c(=O)n(-c6ccccc6)c(=O)n5C4[C@H](O)[C@@H]4O[C@H]34)on2)c(C)c1` (stereo partly specified), the Activity in data set [3] is listed as 48.4%; in data set [4], 45.1%. For the same compound, in data set [1], the EC50 is less than 0.5 µM. Besides, half-maximal cytotoxicity in data set [2] (CC50) was put at 19.5 µM.
`C#CCCCO/N=C1/C[C@@H](O)[C@@H](O)[C@@H]2[C@@H]3C(=O)N(CCC(=O)OCC)C(=O)[C@@H]3CC[C@@H]12`: in data set [1], the concentration giving a half-maximal response (EC50) is more than 100 µM. In addition, in data set [2], the CC50 was more than 50 µM.
Turning to `CC[C@@H](c1ccccc1)N1CN2[C@H]3[C@H](O)[C@@H]4O[C@@H]4/C(=N\OC[C@@H](O)COCc4ccco4)[C@H]3CCN2C1=O`, a half-maximal effect in data set [1] (EC50) was put at 2.5 µM. The same compound registered a CC50 in data set [2] of more than 50 µM.
As for `O=c1n(-c2ccccc2)c(=O)n2n1CC[C@@H]1/C(=N\OC[C@@H](O)COCc3ccco3)[C@H]3O[C@H]3[C@@H](O)C12` (stereo partly specified), in data set [1], the concentration for a half-maximal effect (EC50) was 7 µM. The CC50 in data set [2] was more than 50 µM.
For the compound `C#CCCCO/N=C1/[C@H]2CCN3C(=O)N(c4ccccc4)CN3[C@H]2[C@H](O)[C@@H]2O[C@H]12`, a half-maximal response in data set [1] (EC50) required 1.4 µM. In data set [2], this compound gave a cytotoxic concentration (CC50) of more than 50 µM.
In data set [1], `O=C1C2C=C(I)C(CC2OCCCCCCO)[C@]12CO2` (stereo partly specified) came in with an EC50 of 26.7 µM. This compound also came in with a CC50 in data set [2] of more than 50 µM.
For the compound `O=C1C2C=C(I)C(CC2OCCCCO)[C@]12CCCO2` (stereo partly specified), the EC50 in data set [1] was more than 30 µM. Further, the CC50 in data set [2] was more than 50 µM.
The compound `O=C1C2C=C(I)C(CC2OCCCCO)[C@]12CO2` (stereo partly specified) registered an EC50 in data set [1] of 25.7 µM. For the same compound, in data set [2], the CC50 is more than 50 µM.
Regarding `C#CCCCO/N=C1/[C@H]2CCN3C(=O)N([C@@H](CC)c4ccccc4)CN3[C@H]2[C@H](O)[C@@H]2O[C@H]12`, the concentration giving a half-maximal response (EC50) in data set [1] worked out at 3.8 µM. In data set [2], this compound came in with a CC50 of more than 50 µM.
`C[C@@]12COC[C@]13C=C(Br)C(C2)[C@]1(CO1)C3=O` registered a half-maximal effective concentration (EC50) in data set [1] of 12.7 µM. In data set [2], this compound came in with a half-maximal cytotoxic concentration (CC50) of more than 50 µM.
In turn, `O=C1C2C=C(Br)C(CC2OCCCCCCO)[C@]12CO2` (stereo partly specified) registered a half-maximal effective concentration (EC50) in data set [1] of 19.6 µM. Also, the half-maximal cytotoxic concentration (CC50) in data set [2] was more than 50 µM.
In turn, `O=C1C2C=C(Br)C(CC2c2ccccc2)[C@]12CO2` (stereo partly specified) returned a 50% effective concentration (EC50) in data set [1] of 19.7 µM. The same compound had a CC50 in data set [2] of more than 50 µM.
The corresponding values for `O=C1C2C=C(I)C(CC2c2ccccc2)[C@]12CO2` (stereo partly specified) are 9.1 µM and more than 50 µM.
As for `C[C@H](O/N=C1\[C@H]2CCn3c(=O)n(-c4ccccc4)c(=O)n3C2[C@H](O)[C@@H]2O[C@H]12)c1cn([C@H](CO)Cc2ccccc2)nn1` (stereo partly specified), the EC50 in data set [1] is 7 µM. For the same compound, the CC50 in data set [2] was more than 50 µM.
The corresponding values for `O=C1[C@@]2(CO)C=C(Br)C(CC2c2ccccc2)[C@]12CO2` (stereo partly specified) are 6.6 µM and more than 50 µM.
In data set [1], `C[C@@H](O/N=C1\[C@H]2CCn3c(=O)n(-c4ccccc4)c(=O)n3C2[C@H](O)[C@@H]2O[C@H]12)c1cn([C@H](CO)Cc2ccccc2)nn1` (stereo partly specified) displayed an EC50 of 7.6 µM. Moreover, the 50% cytotoxic concentration (CC50) in data set [2] is more than 50 µM.
As for `O=C1[C@@]2(CO)C=C(I)C(CC2c2ccccc2)[C@]12CO2` (stereo partly specified), the Activity is listed as 48.4% in data set [3] and 45.1% in data set [4]. The compound further yielded a 50% effective concentration (EC50) in data set [1] of 3.5 µM. In data set [2], this compound registered a CC50 of 27.1 µM.
The compound `COc1ccc(O[C@H]2C=C[C@@H](c3ccccc3)O[C@@H]2CO/N=C(\C)CCN2CCc3nc(-c4ccccc4)c(-c4ccccc4)cc3C2)cc1` showed a half-maximal effective concentration (EC50) in data set [1] of 21.1 µM. In data set [2], this compound came in with a CC50 of more than 50 µM.
For the compound `C=CC[C@@H]1C=C[C@H](O/N=C2\[C@H]3CCn4c(=O)n(-c5ccccc5)c(=O)n4[C@H]3[C@H](O)[C@@H]3O[C@H]23)[C@@H](CO)O1`, the EC50 in data set [1] was determined as 7.75 µM. In data set [2], this compound had a CC50 of 35.3 µM.
For `CO[C@]12C=C(Br)C(CC1c1cccc(C)c1)[C@]1(CO1)C2=O` (stereo partly specified) the same measures were 8 µM and more than 50 µM.

The EC50 is the concentration giving half of the maximal effect. Lower therefore signals greater potency. What is called CC50 is the concentration giving 50% cytotoxicity. Low readings indicate greater toxicity to the cells, high ones lower toxicity to the cells.
